Values quoted from earlier work, collected in patent US20050008633A1, “Chemical and physical modulators of bioavailability of inhaled compositions” (Advanced Inhalation Research Inc., priority 2003, published 2005).

Legend:
[1] = test system: rat alveolar epithelial cell monolayers; details: rat pneumocyte monolayers
[2] = intratracheal instillation in animals, absorption over many hours

In the case of “F-Alb: fluorescein isothiocyanate (FITC)-labeled bovine serum albumin”, the “Jmax (i.e., maximum flux)” value ([1]; net absorption of intact F-Alb) is listed as ~0.15 fmol.cm^−2.s^−1 and the “Kt (i.e., K(1)) of net absorption of intact F-Alb” value ([1]; simple saturable process) is listed as ~1.6 µM.
For immunoglobulin G, the bioavailability [2] is listed as “lower than 5%”.
